The source of these data is patent US11840584B2, “Simple and green method for preparation of acid modified cyclodextrin” (priority 2020, dated 2023).

The nature of this data set: Curcumin retention in curcumin-cyclodextrin inclusion complex solution left standing 10 days. The class given is physicochemical. The following applies: 10 days at room temperature without shielding from light.
Regarding `OC[C@H]1O[C@@H]2O[C@H]3[C@H](O)[C@@H](O)[C@@H](O[C@H]4[C@H](O)[C@@H](O)[C@@H](O[C@H]5[C@H](O)[C@@H](O)[C@@H](O[C@H]6[C@H](O)[C@@H](O)[C@@H](O[C@H]7[C@H](O)[C@@H](O)[C@@H](O[C@H]8[C@H](O)[C@@H](O)[C@@H](O[C@H]1[C@H](O)[C@H]2O)O[C@@H]8CO)O[C@@H]7CO)O[C@@H]6CO)O[C@@H]5CO)O[C@@H]4CO)O[C@@H]3CO` [β-cyclodextrin], the “curcumin remained in the solution” value is given as 32.30%. For `OC[C@H]1O[C@@H]2O[C@H]3[C@H](O)[C@@H](O)[C@@H](O[C@H]4[C@H](O)[C@@H](O)[C@@H](O[C@H]5[C@H](O)[C@@H](O)[C@@H](O[C@H]6[C@H](O)[C@@H](O)[C@@H](O[C@H]7[C@H](O)[C@@H](O)[C@@H](O[C@H]8[C@H](O)[C@@H](O)[C@@H](O[C@H]9[C@H](O)[C@@H](O)[C@@H](O[C@H]1[C@H](O)[C@H]2O)O[C@@H]9CO)O[C@@H]8CO)O[C@@H]7CO)O[C@@H]6CO)O[C@@H]5CO)O[C@@H]4CO)O[C@@H]3CO` [γ-cyclodextrin] the value was 21.94%. For `OC[C@H]1O[C@@H]2O[C@H]3[C@H](O)[C@@H](O)[C@@H](O[C@H]4[C@H](O)[C@@H](O)[C@@H](O[C@H]5[C@H](O)[C@@H](O)[C@@H](O[C@H]6[C@H](O)[C@@H](O)[C@@H](O[C@H]7[C@H](O)[C@@H](O)[C@@H](O[C@H]1[C@H](O)[C@H]2O)O[C@@H]7CO)O[C@@H]6CO)O[C@@H]5CO)O[C@@H]4CO)O[C@@H]3CO` [α-cyclodextrin] the value was 36.83%.
